Test results from US20240209001A1, “HETEROCYCLIC DERIVATIVES AS JANUS KINASE INHIBITORS” (CHIESI FARMACEUTICI S.P. A., priority 2021, published 2024).

Legend:
JAK 1 = JAK 1 (Homo sapiens (Human), UniProt P23458); assay: Biochemical potency JAK1, TR-FRET LANCE Ultra kinase assay (examples 1a-10a); details: ATP corresponding to Km
From the text: Pharmacological Activity of the Compounds of the Invention (1a-10a).
The objective of this study was to assess the activity of novel JAK inhibitors measuring the capability of compounds to inhibit JAK1 kinase activity in a biochemical time-resolved fluorescence resonance energy transfer (TR-FRET) LANCE assay. In LANCE Ultra kinase assay in the presence of JAK1 kinase and ATP (corresponding to Km), the ULight peptide substrate (LANCE Ulight-JAK-1 (Tyr1023) Peptide, Perkin Elmer, TRF0121) was phosphorylated. It was then captured by a Eu-anti-phospho-substrate antibody (LANCE Eu-W1024 Anti-phosphotyrosine (PT66), Perkin Elmer, AD0069), which brought the Eu-chelate donor and ULight acceptor dyes into close proximity. Upon excitation at 320 nm, the Eu-chelate transfers its energy to the ULight dye, resulting in a fluorescent light emission at 665 nm. Inhibitors were tested at 11 consecutive 5-fold dilutions starting from 30 μM (30 μM-[…]) in duplicate. Calculation of IC50 data, curves and QC analysis were made using Excel tools and GraphPadPrism software. QC criteria parameters: Z′≥0.5, Hill Slope range 0.5 to 5, S:B>2.

[1] = tested on: IL-2 induced phosphorylation of STAT5 (JAK1/JAK3 activity) in human peripheral blood mononuclear cells (PBMCs); assay: Cell based assay PBMC (IL-2 stimulated pSTAT5); details: 0.5 h, rh IL-2, 30 min incubation, pSTAT5 ELISA, read-out: Cell Based assay PBMC (IL-2 stimulated pSTAT5), data displayed as pIC50 (converted)
Description: In addition to enzymatic potency, the effects of the inhibitors against JAK1/JAK3 activity in a cellular assay was characterized against IL-2 induced phosphorylation of STAT5 level in human peripheral blood mononuclear cells (PBMCs).
PBMC have been isolated from human healthy volunteers. Cells were seeded in wells and treated with compounds and rh IL-2. After 30 min incubation cells were lysed and pSTAT5 determined by PathScan phospho-stat5 (Tyr694) ELISA (Cell signaling). Inhibitors were tested at 11 consecutive 5-fold dilutions starting from 30 μM (30 μM-[…]) in duplicate. Calculation of IC50 data, curves and QC analysis were made using Excel tools and GraphPadPrism software. QC criteria parameters: Z′≥0.35, Hill Slope range 0.5 to 5, S:B>2.

Sequence of JAK 1 (P23458 whole entry): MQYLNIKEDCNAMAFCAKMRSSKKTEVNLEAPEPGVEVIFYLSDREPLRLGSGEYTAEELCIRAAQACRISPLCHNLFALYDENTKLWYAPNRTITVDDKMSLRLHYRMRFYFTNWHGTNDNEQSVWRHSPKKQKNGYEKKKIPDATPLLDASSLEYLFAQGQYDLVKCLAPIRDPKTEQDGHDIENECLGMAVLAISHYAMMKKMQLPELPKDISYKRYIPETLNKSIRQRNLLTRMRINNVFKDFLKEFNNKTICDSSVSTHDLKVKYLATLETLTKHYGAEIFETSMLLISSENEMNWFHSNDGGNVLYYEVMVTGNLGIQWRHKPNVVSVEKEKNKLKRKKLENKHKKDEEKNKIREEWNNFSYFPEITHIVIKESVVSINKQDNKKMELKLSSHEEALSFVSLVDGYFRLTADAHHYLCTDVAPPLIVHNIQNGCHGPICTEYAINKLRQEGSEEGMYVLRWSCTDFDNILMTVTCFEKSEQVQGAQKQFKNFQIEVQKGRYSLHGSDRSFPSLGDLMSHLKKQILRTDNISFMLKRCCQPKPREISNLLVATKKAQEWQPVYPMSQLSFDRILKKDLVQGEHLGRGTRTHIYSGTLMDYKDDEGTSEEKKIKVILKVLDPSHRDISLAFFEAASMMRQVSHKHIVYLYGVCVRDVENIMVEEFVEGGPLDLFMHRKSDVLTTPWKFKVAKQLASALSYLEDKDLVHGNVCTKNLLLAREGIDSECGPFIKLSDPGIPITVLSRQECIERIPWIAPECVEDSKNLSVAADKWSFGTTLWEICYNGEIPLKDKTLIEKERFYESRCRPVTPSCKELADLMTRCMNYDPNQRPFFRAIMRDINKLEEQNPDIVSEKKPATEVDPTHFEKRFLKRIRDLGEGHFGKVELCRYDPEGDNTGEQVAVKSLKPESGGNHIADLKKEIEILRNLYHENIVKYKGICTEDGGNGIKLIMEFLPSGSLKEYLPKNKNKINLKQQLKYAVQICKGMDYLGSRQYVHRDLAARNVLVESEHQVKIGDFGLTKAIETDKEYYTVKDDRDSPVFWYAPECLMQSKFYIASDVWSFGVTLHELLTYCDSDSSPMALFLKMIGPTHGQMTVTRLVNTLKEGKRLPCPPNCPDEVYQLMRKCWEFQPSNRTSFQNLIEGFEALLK

Row | SMILES | Biochemical Potency JAK 1 (pIC50) (JAK 1) | IC50 [1]
1 | OCc1nn(-c2cc(Cl)ccc2OC(F)F)c2cc(-c3cnn4cccnc34)cnc12 [Example 1a, (1-(5-chloro-2-(difluoromethoxy)phenyl)-6-(pyrazolo[1,5-a]pyrimidin-3-yl)-1H-pyrazolo[4,3-b]pyridin-3-yl)methanol] | 8.1 | 50.1 nM
2 | Cc1nn(C2CCCN(C(=O)CC#N)C2)c2cc(-c3cnn4cccnc34)cnc12 (stereo not drawn) [Example 10a, 3-(3-(3-methyl-6-(pyrazolo[1,5-a]pyrimidin-3-yl)-1H-pyrazolo[4,3-b]pyridin-1-yl)piperidin-1-yl)-3-oxopropanenitrile] | 6.0 | 6310 nM
3 | Cc1nn(-c2cc(Cl)ccc2OC(F)F)c2cc(-c3cnc4cccnn34)ncc12 [Example 6a, 1-(5-chloro-2-(difluoromethoxy)phenyl)-6-(imidazo[1,2-b]pyridazin-3-yl)-3-methyl-1H-pyrazolo[4,3-c]pyridine] | 8.4 | 
4 | CN(C)C(=O)Cn1nc(-c2cc(Cl)ccc2OC(F)F)c2cc(-c3cnn4cccnc34)cnc21 [Example 2a, 2-(3-(5-chloro-2-(difluoromethoxy)phenyl)-5-(pyrazolo[1,5-a]pyrimidin-3-yl)-1H-pyrazolo[3,4-b]pyridin-1-yl)-N,N-dimethylacetamide] | 7.3 | 631 nM
5 | Cc1nn(-c2cc(Cl)ccc2OC(F)F)c2cc(-c3cnn4cccnc34)cnc12 [Example 9a, 1-(5-chloro-2-(difluoromethoxy)phenyl)-3-methyl-6-(pyrazolo[1,5-a]pyrimidin-3-yl)-1H-pyrazolo[4,3-b]pyridine] | 7.8 | 50.1 nM
6 | CN(C)C(=O)Cc1nn(-c2cc(Cl)ccc2OC(F)F)c2cc(-c3cnn4cccnc34)cnc12 [Example 4a, 2-(1-(5-chloro-2-(difluoromethoxy)phenyl)-6-(pyrazolo[1,5-a]pyrimidin-3-yl)-1H-pyrazolo[4,3-b]pyridin-3-yl)-N,N-dimethylacetamide] | 7.8 | 316 nM
7 | Cc1nn(Cc2ccc(Cl)cc2F)c2cc(-c3cnc4cccnn34)cnc12 [Example 8a, 1-(4-chloro-2-fluorobenzyl)-6-(imidazo[1,2-b]pyridazin-3-yl)-3-methyl-1H-pyrazolo[4,3-b]pyridine] | 6.7 | 794 nM
8 | Cc1nn(-c2cc(Cl)ccc2OC(F)F)c2cc(-c3cnn4cccnc34)ncc12 [Example 7a, 1-(5-chloro-2-(difluoromethoxy)phenyl)-3-methyl-6-(pyrazolo[1,5-a]pyrimidin-3-yl)-1H-pyrazolo[4,3-c]pyridine] | 8.5 | 39.8 nM
9 | COC(=O)c1nn(-c2cc(Cl)ccc2OC(F)F)c2cc(-c3cnn4cccnc34)cnc12 [Example 3a, methyl 1-(5-chloro-2-(difluoromethoxy)phenyl)-6-(pyrazolo[1,5-a]pyrimidin-3-yl)-1H-pyrazolo[4,3-b]pyridine-3-carboxylate] | 8.1 | 
10 | O=C(O)Cc1nn(-c2cc(Cl)ccc2OC(F)F)c2cc(-c3cnn4cccnc34)cnc12 [Example 5a, 2-(1-(5-chloro-2-(difluoromethoxy)phenyl)-6-(pyrazolo[1,5-a]pyrimidin-3-yl)-1H-pyrazolo[4,3-b]pyridin-3-yl)acetic acid] | 7.7 | 6310 nM
